Source: ChEMBL document CHEMBL3414571, “The discovery of macrocyclic XIAP antagonists from a DNA-programmed chemistry library, and their optimization to give lead compounds with in vivo antitumor activity” (J Med Chem, 2015)
Numbered stars: 1 amine (or outer) side, 2 acyl side, 3 side chain; on linkers, the order of the positions; unused ones are H or OH. Bridge positions count the residues as written; N and C are the ends. Square brackets hold non-standard residues; d marks the D form. Peptide text beside a SMILES is read from it. * marks the point of attachment. X1 = O=C(O)CN(CCN[*:1])CCn1cc(CCC(=O)[*:2])nn1; NMeA = CN[C@@H](C)C(=O)O; Pra = C#CC[C@H](N)C(=O)O; X2 = [N-]=[N+]=NCC*

Columns and labels:
[1] = Inhibition of XIAP BIR2 (124 to 240 residues) C202A/C213G mutant (unknown origin) incubated for 60 mins by biotinylated SMAC peptide Alpha-screen assay; set-up: species or system Homo sapiens
[2] = molecular target: E3 ubiquitin-protein ligase XIAP (Homo sapiens, UniProt P98170); assay: Inhibition of XIAP BIR3 (241 to 356 residues) (unknown origin) incubated for 60 mins by fluoresceinated modified SMAC peptide based fluorescence polarization assay
Chain of E3 ubiquitin-protein ligase XIAP (P98170 whole entry, looked up, the tested form may be a part): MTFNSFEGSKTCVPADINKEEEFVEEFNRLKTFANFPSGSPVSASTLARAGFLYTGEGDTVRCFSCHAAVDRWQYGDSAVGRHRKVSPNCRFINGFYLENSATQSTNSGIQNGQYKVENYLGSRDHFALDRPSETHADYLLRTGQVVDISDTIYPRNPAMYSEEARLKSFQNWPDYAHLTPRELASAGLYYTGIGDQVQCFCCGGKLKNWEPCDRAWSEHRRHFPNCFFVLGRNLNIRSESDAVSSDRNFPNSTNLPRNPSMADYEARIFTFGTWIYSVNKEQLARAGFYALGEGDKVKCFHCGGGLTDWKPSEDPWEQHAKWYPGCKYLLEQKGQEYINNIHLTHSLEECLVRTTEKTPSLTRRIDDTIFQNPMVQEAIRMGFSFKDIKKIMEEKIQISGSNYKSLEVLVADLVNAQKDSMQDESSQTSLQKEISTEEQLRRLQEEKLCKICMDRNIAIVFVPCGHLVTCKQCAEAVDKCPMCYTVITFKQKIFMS

BIR2 domain of XIAP = BIR2 domain of XIAP (Homo sapiens, UniProt P98170, C202A/C213G); assay: Inhibition of XIAP BIR2-3 (124 to 356 residues) C202A/C213G mutant (unknown origin) in human THP1 cells using fluoresceinated caspase-3 substrate by caspase-3 rescue assay; type: cell-based, THP-1
Chain of BIR2 domain of XIAP (P98170 whole entry C202A/C213G, looked up, the tested form may be a part): as the sequence (P98170 whole entry, looked up, the tested form may be a part) above, with C202A, C213G counted along it

MDA-MB-231 = assay: Antiproliferative activity against human MDA-MB-231 cells assessed as inhibition of cell proliferation after 72 hrs by MTS assay; type: functional, cell-based; settings: MDA-MB-231, 72 h
A549 = assay: Antiproliferative activity against human A549 cells assessed as inhibition of cell proliferation after 72 hrs by MTS assay; type: functional, cell-based; settings: A549, 72 h
[3] = Antiproliferative activity against human A875 cells assessed as inhibition of cell proliferation after 72 hrs by MTS assay; type: functional, cell-based; settings: A875, 72 h

| SMILES | IC50 [1] [nM] | IC50 [2] [nM] | EC50 (BIR2 domain of XIAP) [nM] | IC50 (MDA-MB-231) [nM] | IC50 (A549) [nM] | IC50 [3] [nM] |
| --- | --- | --- | --- | --- | --- | --- |
| CN[C@@H](C)C(=O)N[C@H](C(=O)N1C[C@@H]2C[C@H]1C(=O)N[C@@H](Cc1ccc3ccccc3c1)C(=O)N[C@H](C(=O)O)Cc1ccc(cc1)OCc1cn2nn1)C1CCCCC1 | 2270 | 235 |  |  |  |  |
| C#CC[C@H](NC(=O)[C@H](C)NC)C(=O)N1CCC[C@H]1C(=O)N[C@@H](Cc1ccccc1)C(=O)N[C@@H](Cc1ccc(OCCN=[N+]=[N-])cc1)C(=O)O (H-[NMeA][Pra]PFY(X2)-OH) | 540 | 180 |  |  |  |  |
| CN[C@@H](C)C(=O)N[C@H](C(=O)N1C[C@@H]2C[C@H]1C(=O)N[C@@H](Cc1ccccc1)C(=O)N[C@H](C(=O)O)Cc1ccc(cc1)NC(=O)CCc1cn(nn1)[C@H]1C[C@@H](C(=O)N[C@@H](Cc3ccccc3)C(=O)N[C@H](C(=O)O)Cc3ccc(cc3)NC(=O)CCc3cn2nn3)N(C(=O)[C@@H](NC(=O)[C@H](C)NC)C(C)C)C1)C(C)C | 6 | 47 | 70 | 7900 | > 25000 |  |
| CN[C@@H](C)C(=O)N[C@H](C(=O)N1C[C@@H]2C[C@H]1C(=O)N[C@@H](Cc1ccccc1)C(=O)N[C@H](C(=O)O)Cc1ccc(cc1)OCc1cn(nn1)[C@H]1C[C@@H](C(=O)N[C@@H](Cc3ccccc3)C(=O)N[C@H](C(=O)O)Cc3ccc(cc3)OCc3cn2nn3)N(C(=O)[C@@H](NC(=O)[C@H](C)NC)C(C)C)C1)C(C)C | 3 | 68 | 45 | 2940 | > 25000 | 4220 |
| CN[C@@H](C)C(=O)N[C@H]1CCCCNC(=O)CCc2cn(nn2)CCN(CC(=O)O)CCNC(=O)[C@H](Cc2ccccc2)NC(=O)[C@@H]2CCCN2C1=O (H-[NMeA]KPF[X1]; lactam 2-C) | > 18800 | 900 |  |  |  |  |
| CN[C@@H](C)C(=O)N[C@H](C(=O)N1C[C@@H]2C[C@H]1C(=O)N[C@@H](Cc1ccccc1)C(=O)N[C@H](C(=O)O)Cc1ccc(cc1)NC(=O)CCc1cn2nn1)C(C)C | 1970 | 110 | 6700 |  |  |  |
| CN[C@@H](C)C(=O)N[C@H]1Cc2cn(nn2)CCOc2ccc(cc2)C[C@@H](C(=O)O)NC(=O)[C@H](Cc2ccccc2)NC(=O)[C@@H]2CCCN2C1=O | > 18800 | 1320 |  |  |  |  |
| CN[C@@H](C)C(=O)N[C@H](C(=O)N1C[C@@H]2C[C@H]1C(=O)N[C@@H](Cc1ccc3ccccc3c1)C(=O)N[C@H](C(=O)O)Cc1ccc(cc1)OCc1cn2nn1)C(C)(C)C | 827 | 214 |  |  |  |  |
| CN[C@@H](C)C(=O)N[C@H](C(=O)N1C[C@@H]2C[C@H]1C(=O)N[C@@H](Cc1cccc3ccccc13)C(=O)N[C@H](C(=O)O)Cc1ccc(cc1)OCc1cn(nn1)[C@H]1C[C@@H](C(=O)N[C@@H](Cc3cccc4ccccc34)C(=O)N[C@H](C(=O)O)Cc3ccc(cc3)OCc3cn2nn3)N(C(=O)[C@@H](NC(=O)[C@H](C)NC)C(C)C)C1)C(C)C | 219 | 29 | 34 | 197 | > 25000 | 422 |
